According to article PMC8213057, “Targeting ALK2: An Open Science Approach to Developing Therapeutics for the Treatment of Diffuse Intrinsic Pontine Glioma” (Journal of Medicinal Chemistry, 2020):

Key:
[1] = molecular target: CDK8/cyclin C (Homo sapiens, UniProt P49336); details: 1 μM; Run 1, Run 2
[2] = molecular target: DAPK2 (Homo sapiens, UniProt Q9UIK4); details: 1 μM; Run 1, Run 2
[3] = molecular target: LYN (Homo sapiens, UniProt P07948); details: 1 μM; Run 1, Run 2
[4] = molecular target: T1, NEK3 (Homo sapiens, UniProt P51956); details: 1 μM; Run 1, Run 2
T1 sequence (P51956 1-506): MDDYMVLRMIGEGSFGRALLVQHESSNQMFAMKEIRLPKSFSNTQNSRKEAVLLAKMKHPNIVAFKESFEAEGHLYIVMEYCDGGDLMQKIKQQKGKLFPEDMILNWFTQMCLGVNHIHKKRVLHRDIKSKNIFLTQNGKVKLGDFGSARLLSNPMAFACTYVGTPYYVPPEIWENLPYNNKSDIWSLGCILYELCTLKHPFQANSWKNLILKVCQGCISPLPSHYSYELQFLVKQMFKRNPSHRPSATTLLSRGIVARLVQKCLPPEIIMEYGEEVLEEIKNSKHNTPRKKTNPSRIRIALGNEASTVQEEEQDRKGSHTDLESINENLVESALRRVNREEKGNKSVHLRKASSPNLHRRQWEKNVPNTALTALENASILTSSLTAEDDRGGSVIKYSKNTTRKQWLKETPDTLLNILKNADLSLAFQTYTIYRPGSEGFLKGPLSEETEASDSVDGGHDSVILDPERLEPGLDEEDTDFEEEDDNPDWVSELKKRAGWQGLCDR

[5] = molecular target: IRAK1 (Homo sapiens, UniProt P51617); test: biochemical; details: read-out: % enzyme activity, 1 μM; Run 1, Run 2
IRAK1, sequence (P51617 whole entry): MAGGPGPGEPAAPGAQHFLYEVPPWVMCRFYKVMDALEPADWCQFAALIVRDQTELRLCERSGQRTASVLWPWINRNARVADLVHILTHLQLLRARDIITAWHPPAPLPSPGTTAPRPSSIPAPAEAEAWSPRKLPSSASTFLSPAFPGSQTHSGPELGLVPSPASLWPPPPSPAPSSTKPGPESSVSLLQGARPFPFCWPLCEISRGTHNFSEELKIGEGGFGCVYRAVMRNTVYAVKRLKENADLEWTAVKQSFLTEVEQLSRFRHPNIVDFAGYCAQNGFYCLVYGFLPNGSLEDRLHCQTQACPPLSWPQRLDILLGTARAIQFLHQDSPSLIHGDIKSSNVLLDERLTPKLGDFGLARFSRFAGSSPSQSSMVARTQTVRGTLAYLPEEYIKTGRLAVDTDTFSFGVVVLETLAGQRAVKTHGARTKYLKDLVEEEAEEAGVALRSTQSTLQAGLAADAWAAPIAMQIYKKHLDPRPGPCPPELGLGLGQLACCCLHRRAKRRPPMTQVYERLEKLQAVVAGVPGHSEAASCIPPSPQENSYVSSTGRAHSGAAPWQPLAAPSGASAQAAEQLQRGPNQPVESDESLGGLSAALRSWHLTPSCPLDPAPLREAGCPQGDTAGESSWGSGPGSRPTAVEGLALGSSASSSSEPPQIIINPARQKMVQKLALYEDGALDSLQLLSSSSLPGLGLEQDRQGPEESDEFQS

[6] = molecular target: T2, MYLK4 (Homo sapiens, UniProt Q86YV6); test: biochemical; details: read-out: % enzyme activity, 1 μM; Run 1, Run 2
T2 sequence (Q86YV6 1-388): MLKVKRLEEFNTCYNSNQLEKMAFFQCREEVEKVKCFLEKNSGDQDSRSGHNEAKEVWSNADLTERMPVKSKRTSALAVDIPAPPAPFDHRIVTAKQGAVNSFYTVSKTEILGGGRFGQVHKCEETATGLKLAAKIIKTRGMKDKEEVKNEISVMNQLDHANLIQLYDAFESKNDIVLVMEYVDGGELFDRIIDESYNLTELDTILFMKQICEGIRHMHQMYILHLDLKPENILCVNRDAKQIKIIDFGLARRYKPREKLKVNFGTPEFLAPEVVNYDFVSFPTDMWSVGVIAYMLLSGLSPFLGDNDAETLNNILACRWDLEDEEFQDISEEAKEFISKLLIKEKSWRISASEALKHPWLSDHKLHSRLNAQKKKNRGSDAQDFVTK

[7] = molecular target: P38b/MAPK11 (Homo sapiens, UniProt Q15759); test: biochemical; details: read-out: % enzyme activity, 1 μM; Run 1, Run 2
P38b/MAPK11, sequence (Q15759 whole entry): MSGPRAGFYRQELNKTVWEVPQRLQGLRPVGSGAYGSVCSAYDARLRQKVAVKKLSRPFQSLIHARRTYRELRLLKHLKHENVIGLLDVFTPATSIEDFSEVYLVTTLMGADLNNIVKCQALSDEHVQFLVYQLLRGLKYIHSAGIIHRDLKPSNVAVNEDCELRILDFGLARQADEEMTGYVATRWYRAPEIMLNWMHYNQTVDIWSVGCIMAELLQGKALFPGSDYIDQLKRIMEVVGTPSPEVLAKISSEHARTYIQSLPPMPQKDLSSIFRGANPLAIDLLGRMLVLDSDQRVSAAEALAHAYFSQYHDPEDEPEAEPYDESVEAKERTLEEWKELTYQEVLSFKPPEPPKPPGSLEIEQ

[8] = molecular target: T3, TAOK2/TAO1 (Homo sapiens, UniProt Q9UL54); test: biochemical; details: read-out: % enzyme activity, 1 μM; Run 1, Run 2
T3 sequence (Q9UL54 1-1235): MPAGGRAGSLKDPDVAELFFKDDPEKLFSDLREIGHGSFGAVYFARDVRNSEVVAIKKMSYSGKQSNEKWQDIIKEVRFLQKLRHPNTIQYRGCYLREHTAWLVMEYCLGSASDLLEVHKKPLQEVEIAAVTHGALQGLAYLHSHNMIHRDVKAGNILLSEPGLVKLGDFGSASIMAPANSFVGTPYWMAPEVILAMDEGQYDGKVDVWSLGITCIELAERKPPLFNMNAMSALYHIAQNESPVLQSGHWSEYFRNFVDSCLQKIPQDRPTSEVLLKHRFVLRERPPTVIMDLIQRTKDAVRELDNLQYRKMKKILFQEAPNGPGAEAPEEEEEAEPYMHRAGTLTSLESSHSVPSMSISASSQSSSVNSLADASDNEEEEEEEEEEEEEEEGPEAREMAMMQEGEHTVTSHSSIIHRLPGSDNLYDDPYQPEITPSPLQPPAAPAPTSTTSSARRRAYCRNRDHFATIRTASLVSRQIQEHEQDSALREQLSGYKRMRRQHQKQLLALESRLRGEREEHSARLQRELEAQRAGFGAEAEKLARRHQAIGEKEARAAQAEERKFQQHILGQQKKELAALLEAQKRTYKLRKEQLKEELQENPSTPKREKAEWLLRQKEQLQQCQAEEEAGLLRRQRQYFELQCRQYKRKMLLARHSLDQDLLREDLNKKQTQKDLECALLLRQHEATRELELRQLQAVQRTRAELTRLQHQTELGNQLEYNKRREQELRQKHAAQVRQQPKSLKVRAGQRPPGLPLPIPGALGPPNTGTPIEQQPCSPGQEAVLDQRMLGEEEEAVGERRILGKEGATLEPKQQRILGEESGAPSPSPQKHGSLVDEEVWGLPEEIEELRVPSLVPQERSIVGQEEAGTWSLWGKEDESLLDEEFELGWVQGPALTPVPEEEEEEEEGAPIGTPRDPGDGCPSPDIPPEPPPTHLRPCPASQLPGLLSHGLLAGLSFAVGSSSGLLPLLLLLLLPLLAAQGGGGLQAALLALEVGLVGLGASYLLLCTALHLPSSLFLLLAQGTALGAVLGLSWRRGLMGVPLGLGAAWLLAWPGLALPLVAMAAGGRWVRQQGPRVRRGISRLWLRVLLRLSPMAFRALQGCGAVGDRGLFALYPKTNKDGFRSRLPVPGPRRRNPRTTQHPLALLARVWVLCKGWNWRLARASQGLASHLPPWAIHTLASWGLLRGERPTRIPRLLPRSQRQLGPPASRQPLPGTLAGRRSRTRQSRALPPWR

DAPK2, sequence (Q9UIK4 whole entry): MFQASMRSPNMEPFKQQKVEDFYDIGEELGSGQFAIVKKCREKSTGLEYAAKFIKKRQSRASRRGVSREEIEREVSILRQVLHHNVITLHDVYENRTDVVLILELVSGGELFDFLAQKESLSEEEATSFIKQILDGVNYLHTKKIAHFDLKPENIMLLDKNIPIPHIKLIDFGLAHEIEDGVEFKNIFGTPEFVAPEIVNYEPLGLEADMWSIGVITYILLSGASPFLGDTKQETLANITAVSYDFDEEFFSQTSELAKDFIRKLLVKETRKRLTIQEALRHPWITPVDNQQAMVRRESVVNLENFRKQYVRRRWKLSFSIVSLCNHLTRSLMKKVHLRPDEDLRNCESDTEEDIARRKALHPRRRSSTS
CDK8/cyclin C, sequence (P49336 whole entry): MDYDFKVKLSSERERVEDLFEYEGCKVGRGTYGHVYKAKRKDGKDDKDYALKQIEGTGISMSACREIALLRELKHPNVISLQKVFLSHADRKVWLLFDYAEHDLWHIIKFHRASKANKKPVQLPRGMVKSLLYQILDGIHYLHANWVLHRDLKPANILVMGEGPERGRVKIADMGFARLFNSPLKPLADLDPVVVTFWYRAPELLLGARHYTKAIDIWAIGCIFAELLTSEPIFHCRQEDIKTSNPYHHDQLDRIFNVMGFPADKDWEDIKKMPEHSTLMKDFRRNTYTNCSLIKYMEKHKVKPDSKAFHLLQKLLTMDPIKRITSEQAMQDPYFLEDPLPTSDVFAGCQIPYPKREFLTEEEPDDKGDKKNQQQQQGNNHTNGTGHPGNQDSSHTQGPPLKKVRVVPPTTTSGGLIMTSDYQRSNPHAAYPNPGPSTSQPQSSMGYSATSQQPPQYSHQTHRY
CDK8/cyclin C, sequence (P24863 whole entry partner): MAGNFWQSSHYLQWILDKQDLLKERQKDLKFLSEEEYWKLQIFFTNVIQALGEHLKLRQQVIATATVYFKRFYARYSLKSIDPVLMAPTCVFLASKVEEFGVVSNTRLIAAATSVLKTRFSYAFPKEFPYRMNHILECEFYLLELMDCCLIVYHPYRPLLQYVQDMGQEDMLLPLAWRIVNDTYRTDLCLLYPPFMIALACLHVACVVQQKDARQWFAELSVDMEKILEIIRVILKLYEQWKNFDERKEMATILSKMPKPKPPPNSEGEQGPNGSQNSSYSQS
LYN, sequence (P07948 whole entry): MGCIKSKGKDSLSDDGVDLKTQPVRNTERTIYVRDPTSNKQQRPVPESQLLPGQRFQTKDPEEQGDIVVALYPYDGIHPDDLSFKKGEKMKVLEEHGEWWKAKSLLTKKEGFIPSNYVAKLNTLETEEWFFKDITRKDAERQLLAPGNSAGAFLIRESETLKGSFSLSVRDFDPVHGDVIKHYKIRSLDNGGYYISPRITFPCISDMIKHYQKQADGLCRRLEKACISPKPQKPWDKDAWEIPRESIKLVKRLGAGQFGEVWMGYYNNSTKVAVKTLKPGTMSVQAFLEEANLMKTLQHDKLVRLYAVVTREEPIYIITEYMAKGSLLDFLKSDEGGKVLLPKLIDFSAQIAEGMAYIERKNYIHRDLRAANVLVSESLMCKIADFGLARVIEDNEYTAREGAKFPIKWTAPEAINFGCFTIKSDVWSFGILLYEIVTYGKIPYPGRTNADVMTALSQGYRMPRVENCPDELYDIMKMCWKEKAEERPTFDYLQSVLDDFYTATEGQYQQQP

COc1cc(-c2cncc(-c3ccc(N4CCN(C)CC4)cc3)c2C)cc(F)c1C(N)=O [Compound 26a, 2-Fluoro-6-methoxy-4-(4-methyl-5-(4-(4-methylpiperazin-1-yl)phenyl)pyridin-3-yl)benzamide]
% enzyme activity [1]: 83.64%
% enzyme activity [2]: 101.48%
% enzyme activity [3]: 79.23%
% enzyme activity [4]: 86.84%
remaining activity at 1 µM [5]: 103%
remaining activity at 1 µM [6]: 97.7%
remaining activity at 1 µM [7]: 92.3%
remaining activity at 1 µM [8]: 88.6%

COc1cc(-c2cncc(-c3ccc(N4C[C@@H](C)N(C)[C@@H](C)C4)cc3)c2C)cc(F)c1C(N)=O [Compound 26c, 2-Fluoro-6-methoxy-4-(4-methyl-5-(4-((3R,5S)-3,4,5-trimethylpiperazin-1-yl)phenyl)pyridin-3-yl)benzamide]
% enzyme activity [1]: 92.05%
% enzyme activity [2]: 95.98%
% enzyme activity [3]: 88.67%
% enzyme activity [4]: 94.54%
remaining activity at 1 µM [5]: 98.9%
remaining activity at 1 µM [6]: 104%
remaining activity at 1 µM [7]: 95.5%
remaining activity at 1 µM [8]: 101%
